# How the values were obtained:
# [1] = Intrinsic clearance in liver microsomes
# Experimental: (§1) Next, PBTZ169 and BTZ043 were incubated at a concentration of 1 μg/mL with 0.1 mg of human or mouse liver microsomes (Invitrogen) in order to measure their intrinsic clearance. The relative amounts of the original compound remaining over time were determined by HPLC.
# [2] = Acute toxicity after administration per os; settings: mouse, in vivo, mice
# Experimental: The compounds of the invention are non-toxic after administration per os of doses ranging up to 2000 mg/kg. The compound was well tolerated by animals in the first 24 hours after introduction. […] There were no cases of animal death. LD50 for compounds (2) and (18) is >2000 mg/kg.
# M. tuberculosis H37Rv = assay: In vitro inhibitory activity, resazurin reduction assay (MIC99); format: cell-based, Mycobacterium tuberculosis; settings: for MIC: Mycobacterium tuberculosis, H37RV, resazurin reduction assay (MIC99), read-out: typical MIC values, M. tuberculosis H37Rv
# [3] = tested on: M. tuberculosis strain H37Rv; assay: In vivo efficacy in the acute murine TB model; parameters: species or system mice; settings: for Log of CFU lungs: 4 weeks treatment, intragastric 5 times a week; for Log of CFU lungs / Medium longevity (days) M ± SEM: compounds and BTZ043 50 mg/kg, isoniazid 25 mg/kg; for Result of treatment, macroscopic condition of the lungs: treatment for prescribed time
# [4] = Chemical stability in simulated gastric fluid; format: physicochemical; settings: 5 μM, after 60 minutes
# HepG2 cells = assay: Cytotoxicity TC50, resazurin reduction assay; format: cell-based, human; settings: 72 h incubation
# Experimental: (§2) The selectivity index (SI) of a compound provides a good indication of the potential tolerability of a drug candidate. […] The TC50 of PBTZ169 and BTZ043 were established using two human cell lines, the hepatocyte line HepG2 and the pneumocyte line A549, using the resazurin reduction assay after incubation with varying amounts of the compounds for 72 h. […] The respective MICs were 1 and 2 ng/ml for PBTZ169 and BTZ043. […] In clinical terms, PBTZ169 should be safer and better tolerated than BTZ043.
# A549 cells = assay: Cytotoxicity TC50, resazurin reduction assay; format: cell-based, human; settings: 72 h incubation
# Experimental: as §2
# [5] = tested on: M. tuberculosis strain H37Rv; assay: In vivo efficacy in the chronic murine TB model; parameters: species or system mice; settings: 50 mg/kg by gavage once daily, six-times/week, 4 weeks
# in vitro = settings: human, plasma
# Experimental: as §1
# M. smegmatis = assay: In vitro inhibitory activity, resazurin reduction assay (MIC99); format: cell-based, Mycobacterium smegmatis; settings: Mycolicibacterium smegmatis, read-out: typical MIC values, M. smegmatis
# [6] = tested on: Corynebacterium glutamicum ATCC13032; assay: In vitro inhibitory activity against actinobacteria (MIC); format: cell-based; settings: read-out: typical MIC values, Corynebacterium glutamicum ATCC13032
# [7] = 1 μg/mL with 0.1 mg microsomes, HPLC
Compound,MIC (M. tuberculosis H37Rv) [µg/mL],MIC (M. smegmatis) [µg/mL],MIC [6] [µg/mL],melting point [°C],further results
NC(=O)N1c2ccccc2C=Cc2ccccc21 [Carbamazepine],,,,,"Intrinsic Clearance (Clint), Human liver microsomes ([1]; human, microsomes): 0.6 μL/min/mg of protein; Intrinsic Clearance (Clint), Mouse liver microsomes ([1]; mouse, microsomes): 1.1 μL/min/mg of protein"
"O=c1nc(N2CCN(CC3CCCCC3)CC2)sc2c([N+](=O)[O-])cc(C(F)(F)F)cc12 [Compound 2, 2-[4-(cyclohexylmethyl)piperazin-1-yl]-8-nitro-6-(trifluoromethyl)-4H-1,3-benzothiazin-4-one]",≤ 0.00019,≤ 0.17,,,"LD50 at 7 days [2]: > 2000 mg/kg; MIC used for the selectivity index (M. tuberculosis H37Rv; strain not stated): 0.001 µg/mL; Log of CFU lungs [3]: 4.30; Medium longevity (days) M ± SEM [3]: Alive at sacrifice; Result of treatment, macroscopic condition of the lungs [3]: marked improvement; Intrinsic Clearance (Clint), Human liver microsomes [1, 7]: 23.9 μL/min/mg of protein; Intrinsic Clearance (Clint), Mouse liver microsomes [1, 7]: 20.9 μL/min/mg of protein; Compound remained in simulated gastric fluid [4]: 67%; TC50 against HepG2 cells (HepG2 cells): 66.7 µg/mL; TC50 against A549 cells (A549 cells): 73.2 µg/mL; Reduction of the CFU load in the lungs and spleens compared to treatment with BTZ043 [5]: significantly more efficacious; half-life (in vitro): > 1 h"
"O=c1nc(N2CCN(CCCOc3ccc(F)cc3)CC2)sc2c([N+](=O)[O-])cc(C(F)(F)F)cc12 [Compound 18, 2-{4-[3-(4-fluorophenoxy)propyl]piperazin-1-yl}-8-nitro-6-(trifluoromethyl)-4H-1,3-benzothiazin-4-one]",≤ 0.0019,≤ 0.0019,0.25,,LD50 at 7 days [2]: > 2000 mg/kg
"CCCC(C)N1CCN(c2nc(=O)c3cc(C(F)(F)F)cc([N+](=O)[O-])c3s2)CC1 (stereo not shown) [Compound 7, 2-[4-(1-methylbutyl)piperazin-1-yl]-8-nitro-6-(trifluoromethyl)-4H-1,3-benzothiazin-4-one]",≤ 0.00019,≤ 0.0019,0.125,132 to 133,
"O=c1nc(N2CCN(C3CCCCC3)CC2)sc2c([N+](=O)[O-])cc(C(F)(F)F)cc12 [Compound 1, 2-(4-cyclonexylpiperazin-1-yl)-8-nitro-6-(trifluoromethyl)-4H-1,3-benzothiazin-4-one]",0.00075,≤ 0.17,,189 to 191,
CCCCCN1CCN(c2nc(=O)c3cc(C(F)(F)F)cc([N+](=O)[O-])c3s2)CC1 [Compound 12],0.00037,≤ 0.0019,0.015,133 to 134,
"O=c1nc(N2CCN(CCCC3(c4ccc(F)cc4)OCCO3)CC2)sc2c([N+](=O)[O-])cc(C(F)(F)F)cc12 [Compound 17, 2-(4-{3-[2-(4-fluorophenyl)-1,3-dioxolan-2-yl]propyl}piperazin-1-yl)-8-nitro-6-(trifluoromethyl)-4H-1,3-benzothiazin-4-one]",0.0375,0.00375,0.25,152 to 154,
"CCCCN1CCN(c2nc(=O)c3cc(C(F)(F)F)cc([N+](=O)[O-])c3s2)CC1 [Compound 3, 2-(4-butylpiperazin-1-yl)-8-nitro-6-(trifluoromethyl)-4H-1,3-benzothiazin-4-one]",0.0015,≤ 0.17,,119 to 120,
"O=c1nc(N2CCN(CCOCc3ccccc3)CC2)sc2c([N+](=O)[O-])cc(C(F)(F)F)cc12 [Compound 16, 2-{4-[2-(benzyloxy)ethyl]piperazin-1-yl}-8-nitro-6-(trifluoromethyl)-4H-1,3-benzothiazin-4-one]",0.019,0.031,< 0.5,117 to 119,
"O=c1nc(N2CCN(CCCC3CCCCC3)CC2)sc2c([N+](=O)[O-])cc(C(F)(F)F)cc12 [Compound 14, 2-[4-(3-cyclohexylpropyl)piperazin-1-yl]-8-nitro-6-(trifluoromethyl)-4H-1,3-benzothiazin-4-one]",≤ 0.0019,≤ 0.0019,0.75,145 to 147,
"O=c1nc(N2CCN(CCCC3CCCCC3)CC2)sc2c([N+](=O)[O-])cc(Cl)cc12 [Compound 21, 6-chloro-2-[4-(3-cyclohexylpropyl)piperazin-1-yl]-8-nitro-4H-1,3-benzothiazin-4-one]",≤ 0.0019,≤ 0.0019,0.062,194 to 195,
"O=c1nc(N2CCN(CCC3CCCCC3)CC2)sc2c([N+](=O)[O-])cc(C(F)(F)F)cc12 [Compound 6, 2-[4-(2-cyclohexylethyl)piperazin-1-yl]-8-nitro-6-(trifluoromethyl)-4H-1,3-benzothiazin-4-one]",≤ 0.00019,≤ 0.0019,0.125,175 to 177,
"CCC(CC)N1CCN(c2nc(=O)c3cc(C(F)(F)F)cc([N+](=O)[O-])c3s2)CC1 [Compound 13, 2-[4-(1-ethylpropyl)piperazin-1-yl]-8-nitro-6-(trifluoromethyl)-4H-1,3-benzothiazin-4-one]",0.00037,≤ 0.0019,≤ 0.0019,152 to 153,
"O=c1nc(N2CCN(CCCOc3ccc(F)cc3)CC2)sc2c([N+](=O)[O-])cc(Cl)cc12 [Compound 20, 6-chloro-2-{4-[3-(4-fluorophenoxy)propyl]piperazin-1-yl}-8-nitro-4H-1,3-benzothiazin-4-one]",≤ 0.0019,≤ 0.0019,0.0031,192 to 194,
CC(C)CN1CCN(c2nc(=O)c3cc(C(F)(F)F)cc([N+](=O)[O-])c3s2)CC1 [Compound 4],≤ 0.0019,≤ 0.0019,0.031,150 to 153,
"COCCCN1CCN(c2nc(=O)c3cc(C(F)(F)F)cc([N+](=O)[O-])c3s2)CC1 [Compound 11, 2-[4-(3-methoxypropyl)piperazin-1-yl]-8-nitro-6-(trifluoromethyl)-4H-1,3-benzothiazin-4-one]",0.00375,0.031,0.25,133 to 134,
"CCC(C)N1CCN(c2nc(=O)c3cc(C(F)(F)F)cc([N+](=O)[O-])c3s2)CC1 (stereo not shown) [Compound 5, 2-(4-sec-butylpiperazin-1-yl)-8-nitro-6-(trifluoromethyl)-4H-1,3-benzothiazin-4-one]",0.00037,≤ 0.0019,0.062,127 to 128,
"CCCCCCCN1CCN(c2nc(=O)c3cc(C(F)(F)F)cc([N+](=O)[O-])c3s2)CC1 [Compound 8, 2-(4-heptylpiperazin-1-yl)-8-nitro-6-(trifluoromethyl)-4H-1,3-benzothiazin-4-one]",≤ 0.00019,≤ 0.0019,0.125,125 to 127,Reduction of the CFU load in the lungs and spleens compared to treatment with BTZ043 [5]: significantly more efficacious
"O=c1nc(N2CCN(C34CC5CC(CC(C5)C3)C4)CC2)sc2c([N+](=O)[O-])cc(C(F)(F)F)cc12 [Compound 15, 2-[4-(1-adamantyl)piperazin-1-yl]-8-nitro-6-(trifluoromethyl)-4H-1,3-benzothiazin-4-one]",0.015,0.062,< 0.5,236 to 238,
"NNC(=O)c1ccncc1 [Izoniazid, Isoniazid, reference compound]",,,,,"Log of CFU lungs [3]: 4.34; Medium longevity (days) M ± SEM [3]: Alive at sacrifice; Result of treatment, macroscopic condition of the lungs [3]: marked improvement"
"O=c1nc(N2CCN(Cc3ccncc3)CC2)sc2c([N+](=O)[O-])cc(C(F)(F)F)cc12 [Compound 9, 8-nitro-2-[4-(pyridin-4-ylmethyl)piperazin-1-yl]-6-(trifluoromethyl)-4H-1,3-benzothiazin-4-one]",0.015,0.062,0.125,200 to 202,
"O=c1nc(N2CCN(CCCCOc3ccccc3)CC2)sc2c([N+](=O)[O-])cc(C(F)(F)F)cc12 [Compound 10, 8-nitro-2-[4-(4-phenoxybutyl)piperazin-1-yl]-6-(trifluoromethyl)-4H-1,3-benzothiazin-4-one]",0.0015,≤ 0.0019,≤ 0.0019,256 to 258,
"CCCN1CCN(c2nc(=O)c3cc(C(F)(F)F)cc([N+](=O)[O-])c3s2)CC1 [Compound 19, 2-(4-propylpiperazin-1-yl)-8-nitro-6-(tfluoromethyl)-4H-1,3-benzothiazin-4-one]",0.0037,≤ 0.19,0.25,,"Log of CFU lungs [3]: 4.63; Medium longevity (days) M ± SEM [3]: Alive at sacrifice; Result of treatment, macroscopic condition of the lungs [3]: marked improvement"
